The values below come from patent US9096640B2, “17-hydroxy-17-pentafluoroethyl-estra-4,9(10)-diene-11-methylene oxyalkylene aryl derivatives, process for preparation thereof, and use thereof for treatment of diseases” (Bayer Intellectual Property, priority 2009, dated 2015).

Test [1] addresses T1, human progesterone receptor A (Homo sapiens, UniProt P06401).
T1 construct: expressed in transfected cells; host or cells: SK-N-MC human neuroblastoma cells, stably transfected with pRChPR-A-neo and pMMTV-LUC
T1 sequence (P06401 1-769 isoform P06401-2): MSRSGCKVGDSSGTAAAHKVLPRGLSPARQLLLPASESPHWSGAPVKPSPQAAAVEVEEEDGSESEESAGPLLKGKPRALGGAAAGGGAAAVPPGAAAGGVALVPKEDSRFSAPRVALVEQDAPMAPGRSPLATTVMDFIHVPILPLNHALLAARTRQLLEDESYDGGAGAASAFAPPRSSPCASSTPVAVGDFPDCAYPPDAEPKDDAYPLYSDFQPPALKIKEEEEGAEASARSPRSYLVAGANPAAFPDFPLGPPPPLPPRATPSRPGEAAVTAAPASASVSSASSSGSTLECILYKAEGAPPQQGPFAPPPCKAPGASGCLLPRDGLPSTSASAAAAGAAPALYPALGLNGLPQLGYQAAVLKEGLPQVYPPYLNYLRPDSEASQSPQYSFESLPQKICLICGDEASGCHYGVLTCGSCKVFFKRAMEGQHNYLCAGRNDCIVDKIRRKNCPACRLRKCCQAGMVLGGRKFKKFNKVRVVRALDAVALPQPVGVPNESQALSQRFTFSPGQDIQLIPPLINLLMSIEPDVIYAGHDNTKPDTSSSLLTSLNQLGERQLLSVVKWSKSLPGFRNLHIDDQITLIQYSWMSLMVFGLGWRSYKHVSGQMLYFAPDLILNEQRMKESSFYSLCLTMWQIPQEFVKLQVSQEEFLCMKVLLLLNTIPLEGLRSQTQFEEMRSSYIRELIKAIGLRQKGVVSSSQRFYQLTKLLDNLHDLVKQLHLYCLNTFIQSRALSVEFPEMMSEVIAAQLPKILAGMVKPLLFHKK
The experiment in a line: Progesterone receptor transactivation test in stably transfected SK-N-MC cells (PR-A, MMTV-LUC reporter). It counts as cell-based. The conditions noted are these: 24 hours, in presence of 0.1 nmol/l promegestone, luciferase reporter, read-out: PR-A IC50 (antagonistic potency). How it is done:
(§1) Progesterone Receptor-Antagonistic Action in Stable Transfectants of Human Neuroblastoma Cells (SK-N-MC Cells) with the Human Progesterone A or Progesterone B Receptor and an MN-LUC Reporter Construct
(§2) SK-N-MC cells (human neuroblastoma cells) which have been stably transfected with plasmids expressing the human progesterone receptor B (pRChPR-B-neo) or the human progesterone receptor A (pRChPR-A-neo) and a reporter construct (pMMTV-LUC) were incubated for 24 hours either in the absence (negative control) or in the presence of ascending amounts of the particular test compound (0.01 nmol/l, 0.1 nmol/l, 1 nmol/l, 10 nmol/l, 100 nmol/l and […]), in order to determine the agonistic efficacy. As a positive control of the reporter gene induction, the cells were treated with the synthetic gestagen promegestone (0.01 nmol/l, 0.1 nmol/l, 1 nmol/l, 10 nmol/l, 100 nmol/l and […]). To determine the antagonistic activity, the cells were treated with 0.1 nmol/l promegestone and additionally with ascending amounts of the particular test compound (0.01 nmol/l, 0.1 nmol/l, 1 nmol/l, 10 nmol/l, 100 nmol/l and […]). The activity of the reporter gene LUC (LUC=luciferase) was determined in the cell lysates and measured as RLU (relative light units). All measurements are reported as % efficacy and as […] and […] concentrations.

In test [2] the target is T2, human progesterone receptor B (Homo sapiens, UniProt P06401).
T2 construct: expressed in transfected cells; host or cells: SK-N-MC human neuroblastoma cells, stably transfected with pRChPR-B-neo and pMMTV-LUC
T2 sequence (P06401 1-933): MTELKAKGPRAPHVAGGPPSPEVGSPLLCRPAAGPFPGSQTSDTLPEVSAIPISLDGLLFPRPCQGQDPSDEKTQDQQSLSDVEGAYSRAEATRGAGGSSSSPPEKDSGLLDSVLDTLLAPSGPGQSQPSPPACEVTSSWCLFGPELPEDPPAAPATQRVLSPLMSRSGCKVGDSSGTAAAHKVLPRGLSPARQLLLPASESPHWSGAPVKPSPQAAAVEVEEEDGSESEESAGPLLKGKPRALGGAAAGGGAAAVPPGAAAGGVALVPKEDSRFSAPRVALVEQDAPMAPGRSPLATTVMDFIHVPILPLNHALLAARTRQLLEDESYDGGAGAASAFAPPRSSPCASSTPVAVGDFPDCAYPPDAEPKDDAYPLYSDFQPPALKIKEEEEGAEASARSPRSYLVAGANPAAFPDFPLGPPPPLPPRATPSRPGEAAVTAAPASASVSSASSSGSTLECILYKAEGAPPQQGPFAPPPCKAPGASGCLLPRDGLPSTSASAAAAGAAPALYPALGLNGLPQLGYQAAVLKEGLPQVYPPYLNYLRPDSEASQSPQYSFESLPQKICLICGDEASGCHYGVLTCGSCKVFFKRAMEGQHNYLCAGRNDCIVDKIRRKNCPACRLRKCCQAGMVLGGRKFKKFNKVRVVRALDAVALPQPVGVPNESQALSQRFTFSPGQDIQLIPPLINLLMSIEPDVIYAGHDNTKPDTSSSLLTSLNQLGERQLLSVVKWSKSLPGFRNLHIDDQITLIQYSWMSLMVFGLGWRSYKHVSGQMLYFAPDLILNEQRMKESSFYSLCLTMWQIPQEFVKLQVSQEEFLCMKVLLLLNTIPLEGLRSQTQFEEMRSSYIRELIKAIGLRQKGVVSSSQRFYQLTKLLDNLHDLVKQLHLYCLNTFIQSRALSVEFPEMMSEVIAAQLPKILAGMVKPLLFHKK
The test is described as follows: Progesterone receptor transactivation test in stably transfected SK-N-MC cells (PR-B, MMTV-LUC reporter). The settings on record: 24 hours, in presence of 0.1 nmol/l promegestone, luciferase reporter, read-out: PR-B IC50 (antagonistic potency). Type of test: cell-based. Here is the method:
as §1, §2
For orientation: In a reporter assay the amount or activity of a reporter protein is the signal.

For `CC(OCCO)c1ccc(C2C[C@@]3(C)C(CC[C@@]3(O)C(F)(F)C(F)(F)F)C3CCC4=CC(=O)CCC4=C23)cc1` (mixture of isomers) [Example 1A, (8S,11R,13S,14S,17S)-17-hydroxy-11-{4-[(1RS)-1-(2-hydroxyethoxy)ethyl]phenyl}-13-methyl-17-pentafluoroethyl-1,2,6,7,8,11,12,13,14,15,16,17-dodecahydro-cyclopenta[a]phenanthren-3-one], the half-inhibitory concentration (IC50) – broadly, the point on the concentration scale where inhibition reaches its midpoint – in test [1] was 0.12 nM; in test [2], 0.36 nM.

For `COC(C)c1ccc(C2C[C@@]3(C)C(CC[C@@]3(O)C(F)(F)C(F)(F)F)C3CCC4=CC(=O)CCC4=C23)cc1` (mixture of isomers) [Example 1B, (8S,11R,13S,14S,17S)-17-hydroxy-11-[4-((1RS)-1-methoxyethyl)phenyl]-13-methyl-17-pentafluoroethyl-1,2,6,7,8,11,12,13,14,15,16,17-dodecahydrocyclopenta[a]phenanthren-3-one], the IC50 in test [1] and in test [2] was 0.1 nM in each case.

As for `CC(OCC(=O)OC(C)(C)C)c1ccc([C@H]2C[C@@]3(C)C(CC[C@@]3(O)C(F)(F)C(F)(F)F)C3CCC4=CC(=O)CCC4=C32)cc1` (mixture of isomers) [Example 2, {(1RS)-1-[4-((8S,11R,13S,14S,17S)-17-hydroxy-13-methyl-3-oxo-17-pentafluoroethyl-2,3,6,7,8,11,12,13,14,15,16,17-dodecahydro-1H-cyclopenta[a]phenanthren-11-yl)phenyl]ethoxy}acetic acid tert-butyl ester], the IC50 was 0.1 nM in test [1] and 0.12 nM in test [2].

With `CC(OCC(=O)O)c1ccc([C@H]2C[C@@]3(C)C(CC[C@@]3(O)C(F)(F)C(F)(F)F)C3CCC4=CC(=O)CCC4=C32)cc1` (mixture of isomers) [Example 3, {(RS)-1-[4-((8S,11R,13S,14S,17S)-17-hydroxy-13-methyl-3-oxo-17-pentafluoroethyl-2,3,6,7,8,11,12,13,14,15,16,17-dodecahydro-1H-cyclopenta[a]phenanthren-11-yl)phenyl]ethoxy}acetic acid], the results for the IC50 in test [1] and in test [2] were 13 nM and 9.8 nM, respectively.

For `CC(OCC#N)c1ccc([C@H]2C[C@@]3(C)C(CC[C@@]3(O)C(F)(F)C(F)(F)F)C3CCC4=CC(=O)CCC4=C32)cc1` (mixture of isomers) [Example 5, {(RS)-1-[4-((8S,11R,13S,14S,17S)-17-hydroxy-13-methyl-3-oxo-17-pentafluoroethyl-2,3,6,7,8,11,12,13,14,15,16,17-dodecahydro-1H-cyclopenta[a]phenanthren-11-yl)phenyl]ethoxy}acetonitrile], the half-inhibitory concentration (IC50) in test [1] and in test [2] was 0.1 nM each time.

On to `Cc1nc2cc(COC(C)c3ccc(C4C[C@@]5(C)C(CC[C@@]5(O)C(F)(F)C(F)(F)F)C5CCC6=CC(=O)CCC6=C45)cc3)ccc2s1` (mixture of isomers) [Example 8, (8S,11R,13S,14S,17S)-17-hydroxy-13-methyl-11-{4-[(RS)-1-(2-methylbenzothiazol-5-ylmethoxy)ethyl]phenyl}-17-pentafluoroethyl-1,2,6,7,8,11,12,13,14,15,16,17-dodecahydro-cyclopenta[a]phenanthren-3-one], for which the IC50 in test [1] is 0.06 nM; in test [2] it was 0.1 nM.

Turning to `CC(C)(C)OC(=O)COCCc1ccc([C@H]2C[C@@]3(C)[C@@H](CC[C@@]3(O)C(F)(F)C(F)(F)F)[C@@H]3CCC4=CC(=O)CCC4=C32)cc1` [Example 4, {2-[4-((8S,11R,13S,14S,17S)-17-hydroxy-13-methyl-3-oxo-17-pentafluoroethyl-2,3,6,7,8,11,12,13,14,15,16,17-dodecahydro-1H-cyclopenta[a]phenanthren-11-yl)-phenyl]ethoxy}acetic acid tert-butyl ester], the IC50 in test [1] and in test [2] was 0.1 nM throughout.

Regarding `C[C@]12C[C@H](c3ccc(CCOCC(=O)O)cc3)C3=C4CCC(=O)C=C4CC[C@H]3[C@@H]1CC[C@@]2(O)C(F)(F)C(F)(F)F` [Example 6, {2-[4-((8S,11R,13S,14S,17S)-17-hydroxy-13-methyl-3-oxo-17-pentafluoroethyl-2,3,6,7,8,11,12,13,14,15,16,17-dodecahydro-1H-cyclopenta[a]phenanthren-11-yl)-phenyl]ethoxy}acetic acid], the IC50 in test [1] worked out at 3 nM; in test [2], 12 nM.

As for `C[C@]12C[C@H](c3ccc(CCOCCO)cc3)C3=C4CCC(=O)C=C4CC[C@H]3[C@@H]1CC[C@@]2(O)C(F)(F)C(F)(F)F` [Example 7, (8S,11R,13S,14S,17S)-17-hydroxy-11-{4-[2-(2-hydroxyethoxy)ethyl]phenyl}-13-methyl-17-pentafluoroethyl-1,2,6,7,8,11,12,13,14,15,16,17-dodecahydro-cyclopenta[a]phenanthren-3-one], the IC50 in test [1] and in test [2] was 0.1 nM each time.
